Results: US10780095B2, “Compositions and methods for treating disorders of circadian and diurnal rhythms using prokineticin 2 agonists and antagonists” (THE REGENTS OF THE UNIVERSITY OF CALIFORNIA, priority 2016, dated 2020)
“And” between values parts separate entries of the source, which are not always exact repeats. Identical values can stand only once.

Legend:
recombinant PKR2 = recombinant PKR2 (Homo sapiens (Human), UniProt Q8NFJ6); test: Aequorin-based luminescent Ca2+ mobilization assay, antagonist mode, PKR2; format: cell-based; settings: CHO cells stably expressing aequorin and recombinant PKR2; challenge with recombinant PK2; Ki converted from IC50 by IC50/(1+[PK2]/EC50PK2)
Chain of recombinant PKR2 (Q8NFJ6 whole entry): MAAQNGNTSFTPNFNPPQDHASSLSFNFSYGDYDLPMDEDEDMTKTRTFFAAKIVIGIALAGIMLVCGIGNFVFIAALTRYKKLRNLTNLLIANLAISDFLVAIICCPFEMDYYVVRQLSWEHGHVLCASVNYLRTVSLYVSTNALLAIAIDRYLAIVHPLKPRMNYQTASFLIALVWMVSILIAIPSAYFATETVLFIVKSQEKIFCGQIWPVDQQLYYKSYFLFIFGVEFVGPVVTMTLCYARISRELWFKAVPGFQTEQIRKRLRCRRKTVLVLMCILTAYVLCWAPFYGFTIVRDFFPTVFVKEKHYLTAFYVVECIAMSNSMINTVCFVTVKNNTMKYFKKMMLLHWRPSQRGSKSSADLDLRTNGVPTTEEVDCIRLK
Protocol: (§1) An aequorin-based luminescent assay for calcium mobilization was used to measure mobilization of intracellular Ca^2+ (Bullock et al., Mol Pharmacol 65, 582-588, 2004). Chinese hamster ovary (CHO) cells stably expressing photoprotein aequorin and recombinant PKR1 or PKR2 were tested by this method. Briefly, the cells were charged in Opti-MEM™ (Invitrogen) containing 8 μM of coelenterazine cp at 37° C. for 2 hours. Cells were detached by brief trypsinization and maintained in Hank's Balanced Salt Solution (HBSS) plus 10 mM HEPES (pH7.5) and 0.1% BSA at about 5×10^5 cells/ml. Luminescence measurements were made using a Berthold luminometer.
(§2) All compounds were diluted in HBSS plus 10 mM HEPES (pH7.5) and 0.1% BSA. To test the agonist activity, 100 μl of cells were injected into the tubes with 20 μl of compounds. For antagonist assays, 80 μl cells were incubated in the tubes with 20 μl different concentrations of antagonists at room temperature for 20 minutes, and then 100 μl of recombinant PK2 were injected. The IC50 obtained from the assays were then converted to Ki values using the formula: IC50/(1+[PK2]/EC50PK2).

recombinant PKR1 = recombinant PKR1 (Homo sapiens (Human), UniProt Q8TCW9); test: Aequorin-based luminescent Ca2+ mobilization assay, antagonist mode, PKR1; format: cell-based; settings: CHO cells stably expressing aequorin and recombinant PKR1; challenge with recombinant PK2; Ki converted from IC50 by IC50/(1+[PK2]/EC50PK2)
Chain of recombinant PKR1 (Q8TCW9 whole entry): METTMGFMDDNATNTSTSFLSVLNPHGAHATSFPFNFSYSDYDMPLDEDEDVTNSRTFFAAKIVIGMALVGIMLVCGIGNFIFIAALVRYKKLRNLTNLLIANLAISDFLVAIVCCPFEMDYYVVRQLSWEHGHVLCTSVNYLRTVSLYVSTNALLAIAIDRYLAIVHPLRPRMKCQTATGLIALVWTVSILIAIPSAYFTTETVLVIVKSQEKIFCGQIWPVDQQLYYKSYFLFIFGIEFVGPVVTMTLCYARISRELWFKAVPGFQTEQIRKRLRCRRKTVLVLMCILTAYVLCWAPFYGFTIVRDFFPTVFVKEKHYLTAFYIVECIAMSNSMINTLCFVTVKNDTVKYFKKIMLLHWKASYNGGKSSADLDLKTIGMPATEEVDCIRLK
Protocol: as §1, §2

monkeys = test: Sleep time in monkeys (wireless sleep tracker) after PK2 antagonist; format: in vivo, Macaca fascicularis
mice [1] = test: Locomotor activity in mice after PK2 antagonist; format: in vivo
mice [2] = test: Arousal level (EEG/EMG wake time) in mice after PK2 antagonist; format: in vivo

Row | Structure (SMILES) | Ki (recombinant PKR1) | further results
1 | CC(C)CN(Cc1cc(Cl)c2c(c1)OCCCO2)C(=O)C(C)CNCc1cccc2nc[nH]c12 (racemic) [(±)-2-Methyl-3-(benzimidazol-4-ylmethylamino)-N-(9-chloro-3,4-dihydro-2H-1,5-benzodioxepin-7-ylmethyl)-N-isobutylpropanamide] | 5.6 nM | Ki (recombinant PKR2): 2.1 nM
2 | COc1c(F)cccc1CN1CC[C@@H](C(=O)N(Cc2cc(Cl)c3c(c2)OCCCO3)CC(C)C)C1 [(−)-(3R)-1-(3-Fluoro-2-methoxybenzyl)-N-(9-chloro-3,4-dihydro-2H-1,5-benzodioxepin-7-ylmethyl)-N-isobutylpyrrolidine-3-carboxamide] | 170 nM | 
3 | CC(C)CN(Cc1cc(Cl)c2c(c1)OCCCO2)C(=O)[C@@H]1CCN(Cc2cccc3nc[nH]c23)C1 [(−)-(3R)-1-(benzimidazol-4-ylmethyl)-N-(9-chloro-3,4-dihydro-2H-1,5-benzodioxepin-7-ylmethyl)-N-isobutylpyrrolidine-3-carboxamide] | 2.6 nM | Ki (recombinant PKR2): 1.7 nM
4 | COc1cc(CN2CCO[C@@H](C(=O)N(Cc3cc(Cl)c4c(c3)OCCCO4)CC(C)C)C2)c(F)cc1F [(−)-(2R)-1-(4,6-Difluoro-3-methoxybenzyl)-N-(9-chloro-3,4-dihydro-2H-1,5-benzodioxepin-7-ylmethyl)-N-isobutylmorpholine-2-carboxamide] | 4.09 nM | 
5 | CC(C)CN(Cc1cc(Cl)c2c(c1)OCCCO2)C(=O)[C@H](C)CNCc1cccc2nc[nH]c12 [(−)-(2R)-2-Methyl-3-(benzimidazol-4-ylmethylamino)-N-(9-chloro-3,4-dihydro-2H-1,5-benzodioxepin-7-ylmethyl)-N-isobutylpropanamide] | 3.5 nM and 4.2 nM | 
6 | CC(C)CN(Cc1cc(Cl)c2c(c1)OCCCO2)C(=O)C(C)CNCc1ccc(F)c(O)c1 (racemic) [(±)-2-Methyl-3-((3-hydroxy-4-fluoro)benzylamino)-N-(9-chloro-3,4-dihydro-2H-1,5-benzodioxepin-7-ylmethyl)-N-isobutylpropanamide] | 4.4 nM | 
7 | CC(C)CN(Cc1cc(Cl)c2c(c1)OCCCO2)C(=O)[C@@H]1CCCN(Cc2cccc3nc[nH]c23)C1 [(−)-(3R)-1-(benzimidazol-4-ylmethyl)-N-(9-chloro-3,4-dihydro-2H-1,5-benzodioxepin-7-ylmethyl)-N-isobutylpiperidine-3-carboxamide] | 97 nM | Ki (recombinant PKR2): 3 nM
8 | CC(C)CN(Cc1cc(Cl)c2c(c1)OCCCO2)C(=O)[C@@H]1CCN(Cc2ccc(F)c(O)c2)C1 [(−)-(3R)-1-(4-Fluoro-3-hydroxybenzyl)-N-(9-chloro-3,4-dihydro-2H-1,5-benzodioxepin-7-ylmethyl)-N-isobutylpyrrolidine-3-carboxamide] | 107 nM | 
9 | COc1ccc(F)c(CN2CCO[C@@H](C(=O)N(Cc3cc(Cl)c4c(c3)OCCCO4)CC(C)C)C2)c1 [(−)-(2R)-1-(6-Fluoro-3-methoxybenzyl)-N-(9-chloro-3,4-dihydro-2H-1,5-benzodioxepin-7-ylmethyl)-N-isobutylmorpholine-2-carboxamide] | 10 nM | 
10 | COc1ccc(F)c(CN2CC[C@@H](C(=O)N(Cc3cc(Cl)c4c(c3)OCCCO4)CC(C)C)C2)c1 [(−)-(3R)-1-(6-Fluoro-3-methoxybenzyl)-N-(9-chloro-3,4-dihydro-2H-1,5-benzodioxepin-7-ylmethyl)-N-isobutylpyrrolidine-3-carboxamide] | 301 nM | 
11 | COc1cccc(CN2CCO[C@@H](C(=O)N(Cc3cc(Cl)c4c(c3)OCCCO4)CC(C)C)C2)c1 [(−)-(2R)-1-(3-Methoxybenzyl)-N-(9-chloro-3,4-dihydro-2H-1,5-benzodioxepin-7-ylmethyl)-N-isobutylmorpholine-2-carboxamide] | 2.5 nM | 
12 | COc1cc(CN2CC[C@@H](C(=O)N(Cc3cc(Cl)c4c(c3)OCCCO4)CC(C)C)C2)ccc1F [PKRA83, (3R)-1-(4-Fluoro-3-methoxybenzyl)-N-(9-chloro-3,4-dihydro-2H-1,5-benzodioxepin-7-ylmethyl)-N-isobutylpyrrolidine-3-carb oxamide] |  | increase of the sleep time (monkeys; 10 mg/kg intramuscularly at ZT10, vs vehicle (FIG. 6C)): > 70 min; sleep time (monkeys; nasal topic application, P<0.05 paired t-test (FIG. 19)): significantly increased; sleep time (monkeys; ocular topic application, P<0.05 paired t-test (FIG. 15)): significantly increased; locomotor activity (mice [1]; mice, 40 mg/kg intraperitoneally at ZT6, vs vehicle (FIG. 6A)): significantly increased; locomotor activity (mice [1]; wild type mice, ocular topic delivery during the late night, vs control (FIG. 13)): increased; wakefulness (wake time) (mice [2]; 40 mg/kg intraperitoneally at ZT6, vs vehicle (FIG. 6B)): significantly increased; wake time (mice [2]; ocular topic application at day time, P<0.05 paired t-test (FIG. 14)): significantly increased
13 | COc1cc(F)ccc1CN1CCO[C@@H](C(=O)N(Cc2cc(Cl)c3c(c2)OCCCO3)CC(C)C)C1 [(−)-(2R)-1-(4-Fluoro-2-methoxybenzyl)-N-(9-chloro-3,4-dihydro-2H-1,5-benzodioxepin-7-ylmethyl)-N-isobutylmorpholine-2-carboxamide] | 7.3 nM | 
14 | CC(C)CN(Cc1cc(Cl)c2c(c1)OCCCO2)C(=O)[C@@H]1CCN(Cc2cc(F)cc3nc[nH]c23)C1 [(−)-(3R)-1-(5-fluro-benzimidazol-4-ylmethyl)-N-(9-chloro-3,4-dihydro-2H-1,5-benzodioxepin-7-ylmethyl)-N-isobutylpyrrolidine-3-carboxamide] | 71.3 nM | 
15 | COc1ccccc1CN1CCO[C@@H](C(=O)N(Cc2cc(Cl)c3c(c2)OCCCO3)CC(C)C)C1 [(−)-(2R)-1-(2-Methoxybenzyl)-N-(9-chloro-3,4-dihydro-2H-1,5-benzodioxepin-7-ylmethyl)-N-isobutylmorpholine-2-carboxamide] | 1.49 nM | 
16 | COc1cc(F)ccc1CN1CC[C@@H](C(=O)N(Cc2cc(Cl)c3c(c2)OCCCO3)CC(C)C)C1 [(−)-(3R)-1-(4-Fluoro-2-methoxybenzyl)-N-(9-chloro-3,4-dihydro-2H-1,5-benzodioxepin-7-ylmethyl)-N-isobutylpyrrolidine-3-carboxamide] | 9.32 nM | 
17 | COc1cc(CN2CC[C@@H](C(=O)N(Cc3cc(Cl)c4c(c3)OCCCO4)CC(C)C)C2)c(F)cc1F [(−)-(3R)-1-(4,6-Difluoro-3-methoxybenzyl)-N-(9-chloro-3,4-dihydro-2H-1,5-benzodioxepin-7-ylmethyl)-N-isobutylpyrrolidine-3-carboxamide] | 6.14 nM | 
18 | COc1ccc(F)cc1CN1CCO[C@@H](C(=O)N(Cc2cc(Cl)c3c(c2)OCCCO3)CC(C)C)C1 [(−)-(2R)-1-(5-Fluoro-2-methoxybenzyl)-N-(9-chloro-3,4-dihydro-2H-1,5-benzodioxepin-7-ylmethyl)-N-isobutylmorpholine-2-carboxamide] | 7.3 nM | 
19 | COc1ccc(F)cc1CN1CC[C@@H](C(=O)N(Cc2cc(Cl)c3c(c2)OCCCO3)CC(C)C)C1 [(−)-(3R)-1-(5-Fluoro-2-methoxybenzyl)-N-(9-chloro-3,4-dihydro-2H-1,5-benzodioxepin-7-ylmethyl)-N-isobutylpyrrolidine-3-carboxamide] | 9.3 nM and 6.9 nM | 
20 | COc1cc(CNCC(C)C(=O)N(Cc2cc(Cl)c3c(c2)OCCCO3)CC(C)C)c(F)cc1F (racemic) [(±)-2-Methyl-3-((3-methoxy-4,6-difluoro)benzylamino)-N-(9-chloro-3,4-dihydro-2H-1,5-benzodioxepin-7-ylmethyl)-N-isobutylpropanamide] | 43.5 nM | 
21 | COc1cc(CN2CCO[C@@H](C(=O)N(Cc3cc(Cl)c4c(c3)OCCCO4)CC(C)C)C2)ccc1F [(−)-(2R)-1-(4-Fluoro-3-methoxybenzyl)-N-(9-chloro-3,4-dihydro-2H-1,5-benzodioxepin-7-ylmethyl)-N-isobutylmorpholine-2-carboxamide] | 2.6 nM and 5.4 nM | Ki (recombinant PKR2): 1.9 nM
22 | COc1cc(CN2CCC[C@@H](C(=O)N(Cc3cc(Cl)c4c(c3)OCCCO4)CC(C)C)C2)c(F)cc1F [(−)-(3R)-1-(4,6-Difluoro-3-methoxybenzyl)-N-(9-chloro-3,4-dihydro-2H-1,5-benzodioxepin-7-ylmethyl)-N-isobutylpiperidine-3-carboxamide] | 13.8 nM | 
23 | CC(C)CN(Cc1cc(Cl)c2c(c1)OCCCO2)C(=O)[C@H]1CN(Cc2cc(F)cc3nc[nH]c23)CCO1 [(−)-(2R)-1-(5-fluro-benzimidazol-4-ylmethyl)-N-(9-chloro-3,4-dihydro-2H-1,5-benzodioxepin-7-ylmethyl)-N-isobutylmorpholine-2-carboxamide] | 6.14 nM | 
